This is an account of results in US11866450B2, “Modulators of Cystic Fibrosis Transmembrane Conductance regulator, pharmaceutical compositions, methods of treatment, and process for making the modulators” (priority 2018, dated 2024).

For data set [1] the following is noted: snar bond, DMSO.
The target in data set [2] is CFTR-mediated chloride transport (Homo sapiens, UniProt P13569). The format is cell-based. Conditions: enteroid cells incubated with test compound 18-24 hours, acute 10 μM forskolin and 300 nM Compound III; for Max. Activity: % of chloride transport with 3 μM Compound A, 3 μM Compound II and 300 nM acute Compound III triple combination control. Summed up:
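Human intestinal enteroid cells incubated with compound 18–24 h at 37° C., then membrane potential dye (FLIPR) read 15 min after chloride-free stimulation with 10 μM forskolin, 100 μM IBMX and 300 nM Compound III. AUC expressed as % of triple-combination control (3 μM Compound A, 3 μM Compound II, 300 nM Compound III).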

Like-named read-outs stand apart in the source and are kept apart here.

CFTR-mediated chloride transport, sequence (P13569 whole entry, looked up): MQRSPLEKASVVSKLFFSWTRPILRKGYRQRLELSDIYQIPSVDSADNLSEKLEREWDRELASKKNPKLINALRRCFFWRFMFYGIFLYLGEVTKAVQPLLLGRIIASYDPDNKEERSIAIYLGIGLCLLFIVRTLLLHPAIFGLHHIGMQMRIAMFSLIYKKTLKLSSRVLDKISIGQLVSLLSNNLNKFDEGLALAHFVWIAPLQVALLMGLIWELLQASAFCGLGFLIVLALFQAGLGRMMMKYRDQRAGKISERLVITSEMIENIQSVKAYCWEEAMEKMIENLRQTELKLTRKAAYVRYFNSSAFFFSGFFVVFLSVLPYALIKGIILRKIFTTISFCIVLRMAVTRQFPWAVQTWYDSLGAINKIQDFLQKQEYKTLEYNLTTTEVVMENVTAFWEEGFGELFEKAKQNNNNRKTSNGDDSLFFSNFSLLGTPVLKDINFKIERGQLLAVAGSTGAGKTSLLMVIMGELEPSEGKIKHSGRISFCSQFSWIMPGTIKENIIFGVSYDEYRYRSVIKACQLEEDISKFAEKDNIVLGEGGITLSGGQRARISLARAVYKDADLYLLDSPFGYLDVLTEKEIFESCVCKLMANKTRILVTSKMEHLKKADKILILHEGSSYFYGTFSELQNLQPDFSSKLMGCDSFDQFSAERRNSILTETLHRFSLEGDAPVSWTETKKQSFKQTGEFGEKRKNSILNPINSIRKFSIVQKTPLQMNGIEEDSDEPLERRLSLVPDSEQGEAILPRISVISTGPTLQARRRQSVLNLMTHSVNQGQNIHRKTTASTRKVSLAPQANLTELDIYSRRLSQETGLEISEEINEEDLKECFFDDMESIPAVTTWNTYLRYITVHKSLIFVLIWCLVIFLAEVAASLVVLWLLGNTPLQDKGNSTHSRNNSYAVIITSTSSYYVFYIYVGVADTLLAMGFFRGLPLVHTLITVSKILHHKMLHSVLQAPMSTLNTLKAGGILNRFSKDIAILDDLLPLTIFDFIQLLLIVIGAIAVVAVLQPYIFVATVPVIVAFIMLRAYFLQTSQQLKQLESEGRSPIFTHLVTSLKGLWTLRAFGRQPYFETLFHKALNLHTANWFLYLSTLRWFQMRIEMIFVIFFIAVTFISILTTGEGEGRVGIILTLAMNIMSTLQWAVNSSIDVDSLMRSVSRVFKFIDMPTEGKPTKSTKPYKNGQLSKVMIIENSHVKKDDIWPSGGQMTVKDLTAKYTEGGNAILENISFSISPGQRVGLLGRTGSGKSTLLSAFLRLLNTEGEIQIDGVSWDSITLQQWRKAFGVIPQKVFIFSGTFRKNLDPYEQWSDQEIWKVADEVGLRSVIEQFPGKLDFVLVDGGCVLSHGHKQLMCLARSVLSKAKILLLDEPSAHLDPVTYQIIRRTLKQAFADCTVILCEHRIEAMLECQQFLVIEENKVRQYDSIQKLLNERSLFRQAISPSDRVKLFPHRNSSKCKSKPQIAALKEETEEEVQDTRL

In turn, `Cc1nn2cc1S(=O)(=O)NC(=O)c1ccc(-n3ccc(OCCC4(C(F)(F)F)CC4)n3)nc1N1CC(CCCC2)CC1(C)C` (stereo not drawn) [Compound 71, 12,21,21-trimethyl-4-(3-{2-[1-(trifluoromethyl)cyclopropyl]ethoxy}-1H-pyrazol-1-yl)-10λ^6-thia-1,3,9,13,14-pentaazatetracyclo[17.2.1.111,14.02,7]tricosa-2,4,6,11(23),12-pentaene-8,10,10-trione] came in with a ring closure, yield after HPLC in data set [1] (from Cc1nn(CCCCC2CNC(C)(C)C2)cc1S(=O)(=O)NC(=O)c1ccc(-n2ccc(OCCC3(C(F)(F)F)CC3)n2)nc1Cl, 15-membered ring, K2CO3/CsF, 130.1 mM, 150.0 °C) of 50%. In data set [2], the EC50 was over 3 µM and the “Max. Activity” value is given as “+ (+ is <30%)”.
As to `CC(C)COc1cc(F)cc(-c2ccc3c(n2)N2C[C@@H](CCCNc4cccc(n4)S(=O)(=O)NC3=O)CC2(C)C)c1` [Compound 224, (14S)-8-[3-Fluoro-5-(2-methylpropoxy)phenyl]-12,12-dimethyl-2λ^6-thia-3,9,11,18,23-pentaazatetracyclo[17.3.1.111,14.05,10]tetracosa-1(22),5,7,9,19(23),20-hexaene-2,2,4-trione], the ring closure, yield after HPLC in data set [1] (from CC(C)COc1cc(F)cc(-c2ccc(C(=O)NS(=O)(=O)c3cccc(NCCC[C@@H]4CN(C(=O)OC(C)(C)C)C(C)(C)C4)n3)c(Cl)n2)c1, 15-membered ring, K2CO3/CsF/3A MS, 30.6 mM, 150.0 °C, 2 steps) worked out at 14%. Further, in data set [2], the EC50 is under 1 µM and the “Max. Activity” value was “+++ (+++ is >60%)”.
In turn, `Cc1nn2cc1S(=O)(=O)NC(=O)c1ccc(-n3ccc(OCCC4(C(F)(F)F)CC4)n3)nc1N1C[C@@H](CCC2)CC1(C)C` [Compound 112, (18S)-12,20,20-trimethyl-4-(3-{2-[1-(trifluoromethyl)cyclopropyl]ethoxy}-1H-pyrazol-1-yl)-10λ^6-thia-1,3,9,13,14-pentaazatetracyclo[16.2.1.111,14.02,7]docosa-2,4,6,11(22),12-pentaene-8,10,10-trione] returned a ring closure, yield after HPLC in data set [1] (from Cc1nn(CCC[C@@H]2CNC(C)(C)C2)cc1S(=O)(=O)NC(=O)c1ccc(-n2ccc(OCCC3(C(F)(F)F)CC3)n2)nc1Cl, 14-membered ring, K2CO3/CsF, 37.8 mM, 160.0 °C) of 26%. In data set [2], the EC50 is under 1 µM and the “Max. Activity” value is “++ (++ is 30-60%)”.
Consider `CC(C)C(COc1ccn(-c2ccc3c(n2)N2CC(CC2(C)C)OCCNc2cccc(n2)S(=O)(=O)NC3=O)n1)C(C)C` (stereo not drawn) [Compound 238, 12,12-dimethyl-8-{3-[3-methyl-2-(propan-2-yl)butoxy]-1H-pyrazol-1-yl}-15-oxa-2λ^6-thia-3,9,11,18,23-pentaazatetracyclo[17.3.1.111,14.05,10]tetracosa-1(23),5(10),6,8,19,21-hexaene-2,2,4-trione], for which, in data set [1] (from CC(C)C(COc1ccn(-c2ccc(C(=O)NS(=O)(=O)c3cccc(NCCOC4CN(C(=O)OC(C)(C)C)C(C)(C)C4)n3)c(Cl)n2)n1)C(C)C, 15-membered ring, K2CO3/CsF/3A MS, 78.4 mM, 140.0 °C, 2 steps), the ring closure, yield after HPLC came to 44%. In data set [2], the EC50 is under 1 µM and the “Max. Activity” value is given as “+++ (+++ is >60%)”.
Compound `CC1(C)CC2CCCCNc3ccc(cn3)S(=O)(=O)NC(=O)c3ccc(-n4ccc(OCCC(C5CC5)C5CC5)n4)nc3N1C2` (stereo not drawn) [Compound 130, 8-[3-(3,3-Dicyclopropylpropoxy)-1H-pyrazol-1-yl]-12,12-dimethyl-2λ^6-thia-3,9,11,19,21-pentaazatetracyclo[18.2.2.111,14.05,10]pentacosa-1(22),5,7,9,20,23-hexaene-2,2,4-trione] showed a ring closure, yield after HPLC in data set [1] (from CC(C)(C)OC(=O)N1CC(CCCCNc2ccc(S(=O)(=O)NC(=O)c3ccc(-n4ccc(OCCC(C5CC5)C5CC5)n4)nc3Cl)cn2)CC1(C)C, 17-membered ring, K2CO3/CsF/3A MS, 107.7 mM, 160.0 °C, 2 steps) of 15%. In data set [2], the EC50 is under 1 µM and the “Max. Activity” value is “+++ (+++ is >60%)”.
Consider `CC1(C)CC2CCCNc3ccnc(c3)S(=O)(=O)NC(=O)c3ccc(-n4ccc(OCCC5(C(F)(F)F)CC5)n4)nc3N1C2` (stereo not drawn) [Compound 23, 12,12-dimethyl-8-(3-{2-[1-(trifluoromethyl)cyclopropyl]ethoxy}-1H-pyrazol-1-yl)-2λ^6-thia-3,9,11,18,22-pentaazatetracyclo[17.3.1.111,14.05,10]tetracosa-1(23),5(10),6,8,19,21-hexaene-2,2,4-trione], for which, in data set [1] (from CC(C)(C)OC(=O)N1CC(CCCNc2ccnc(S(=O)(=O)NC(=O)c3ccc(-n4ccc(OCCC5(C(F)(F)F)CC5)n4)nc3Cl)c2)CC1(C)C, 15-membered ring, K2CO3/CsF, 13.0 mM, 150.0 °C, 2 steps), the ring closure, yield after HPLC was found to be 9%. In addition, in data set [2], the half-maximal effective concentration (EC50) is over 3 µM and the “Max. Activity” value is “+ (+ is <30%)”.

As usually defined, the EC50 is the concentration at which the effect is half-maximal.
